ChEMBL document CHEMBL3132769, “Fragment growing to retain or alter the selectivity of anchored kinase hinge-binding fragments” (Medchemcomm, 2014)

Columns and labels:
[1] = target: Protein kinase C beta type (Homo sapiens) (UniProt P05771); settings: 0.1 uM
Description: Inhibition of human full length PKC beta2 expressed in baculovirus assessed as substrate phosphorylation using fluorescence-labelled peptides as substrate at 0.1 uM after 90 mins by microfluidic peptide phosphorylation assay

[2] = target: Tyrosine-protein kinase Fyn (Homo sapiens) (UniProt P06241); assay: Inhibition of human full length FYN expressed in baculovirus assessed as substrate phosphorylation using fluorescence-labelled peptides as substrate at 95 uM after 90 mins by microfluidic peptide phosphorylation assay
[3] = target: T1, Mitogen-activated protein kinase 12 (Homo sapiens) (UniProt P53778); assay: Inhibition of human full length p38 gamma expressed in Escherichia coli cell assessed as substrate phosphorylation using fluorescence-labelled peptides as substrate at 0.06 uM after 90 mins by microfluidic peptide phosphorylation assay
T1 sequence (whole entry): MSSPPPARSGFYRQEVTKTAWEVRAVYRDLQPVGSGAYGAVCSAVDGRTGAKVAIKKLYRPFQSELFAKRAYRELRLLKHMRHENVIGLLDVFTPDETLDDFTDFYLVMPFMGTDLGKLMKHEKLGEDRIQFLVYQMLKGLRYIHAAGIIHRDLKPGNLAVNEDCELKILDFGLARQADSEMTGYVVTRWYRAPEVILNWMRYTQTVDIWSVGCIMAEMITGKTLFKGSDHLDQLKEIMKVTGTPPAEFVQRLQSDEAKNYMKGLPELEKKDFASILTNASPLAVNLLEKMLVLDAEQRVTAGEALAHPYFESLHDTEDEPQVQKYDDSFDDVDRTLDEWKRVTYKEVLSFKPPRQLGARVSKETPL

[4] = target: T2, Serine/threonine-protein kinase Chk1 (Homo sapiens) (UniProt O14757); assay: Inhibition of human full length CHK1 expressed in baculovirus assessed as substrate phosphorylation using fluorescence-labelled peptides as substrate at 8 uM after 90 mins by microfluidic peptide phosphorylation assay
T2 sequence (whole entry): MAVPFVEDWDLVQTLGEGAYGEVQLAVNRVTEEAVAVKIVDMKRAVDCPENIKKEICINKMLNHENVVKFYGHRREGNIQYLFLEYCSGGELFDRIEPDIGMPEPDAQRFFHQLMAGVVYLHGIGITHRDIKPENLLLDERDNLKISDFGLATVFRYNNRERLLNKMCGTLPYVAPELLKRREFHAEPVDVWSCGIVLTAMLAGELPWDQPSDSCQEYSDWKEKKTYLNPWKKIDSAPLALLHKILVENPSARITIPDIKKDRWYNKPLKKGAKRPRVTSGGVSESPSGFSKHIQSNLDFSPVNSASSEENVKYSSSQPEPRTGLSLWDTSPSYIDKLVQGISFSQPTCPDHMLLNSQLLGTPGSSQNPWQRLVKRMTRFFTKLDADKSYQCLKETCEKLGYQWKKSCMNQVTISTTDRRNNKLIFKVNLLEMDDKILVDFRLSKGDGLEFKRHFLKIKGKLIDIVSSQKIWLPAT

[5] = target: T3, Serine/threonine-protein kinase D1 (Homo sapiens) (UniProt Q15139); assay: Inhibition of human full length PKD1 expressed in baculovirus assessed as substrate phosphorylation using fluorescence-labelled peptides as substrate at 8 uM after 90 mins by microfluidic peptide phosphorylation assay
T3 sequence (whole entry): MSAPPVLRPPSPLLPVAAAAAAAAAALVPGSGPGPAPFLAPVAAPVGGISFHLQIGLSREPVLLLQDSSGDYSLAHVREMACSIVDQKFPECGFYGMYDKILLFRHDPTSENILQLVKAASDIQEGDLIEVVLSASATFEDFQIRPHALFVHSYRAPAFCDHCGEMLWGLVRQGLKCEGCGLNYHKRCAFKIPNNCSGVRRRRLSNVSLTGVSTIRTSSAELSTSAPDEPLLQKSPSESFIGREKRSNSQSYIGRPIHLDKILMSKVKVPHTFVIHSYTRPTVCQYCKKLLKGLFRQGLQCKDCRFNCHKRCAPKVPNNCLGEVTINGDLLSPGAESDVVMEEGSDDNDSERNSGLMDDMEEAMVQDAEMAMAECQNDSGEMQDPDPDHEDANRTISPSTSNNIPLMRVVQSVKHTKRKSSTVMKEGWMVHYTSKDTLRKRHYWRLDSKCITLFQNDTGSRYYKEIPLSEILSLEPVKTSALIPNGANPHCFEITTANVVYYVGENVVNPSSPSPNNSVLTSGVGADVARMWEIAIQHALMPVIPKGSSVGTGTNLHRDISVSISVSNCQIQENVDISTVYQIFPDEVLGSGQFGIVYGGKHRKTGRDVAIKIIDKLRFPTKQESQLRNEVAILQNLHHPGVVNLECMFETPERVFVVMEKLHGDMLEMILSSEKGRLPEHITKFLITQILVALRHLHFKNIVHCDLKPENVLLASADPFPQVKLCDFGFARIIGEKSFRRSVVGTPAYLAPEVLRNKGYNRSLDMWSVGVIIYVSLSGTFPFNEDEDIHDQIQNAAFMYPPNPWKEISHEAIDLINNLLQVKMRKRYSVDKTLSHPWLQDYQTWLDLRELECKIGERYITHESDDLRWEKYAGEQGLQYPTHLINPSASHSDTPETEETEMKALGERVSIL

Homo sapiens = species: Homo sapiens; assay: Inhibition of human P70S6K catalytic domain expressed in baculovirus assessed as substrate phosphorylation using fluorescence-labelled peptides as substrate at 70 uM after 90 mins by microfluidic peptide phosphorylation assay
[6] = target: RAF proto-oncogene serine/threonine-protein kinase (Homo sapiens) (UniProt P04049); assay: Inhibition of human truncated c-Raf expressed in baculovirus assessed as substrate phosphorylation using fluorescence-labelled peptides as substrate at 70 uM after 90 mins by microfluidic peptide phosphorylation assay
Sequence of RAF proto-oncogene serine/threonine-protein kinase (Homo sapiens) (P04049 whole entry, the tested form may be a part): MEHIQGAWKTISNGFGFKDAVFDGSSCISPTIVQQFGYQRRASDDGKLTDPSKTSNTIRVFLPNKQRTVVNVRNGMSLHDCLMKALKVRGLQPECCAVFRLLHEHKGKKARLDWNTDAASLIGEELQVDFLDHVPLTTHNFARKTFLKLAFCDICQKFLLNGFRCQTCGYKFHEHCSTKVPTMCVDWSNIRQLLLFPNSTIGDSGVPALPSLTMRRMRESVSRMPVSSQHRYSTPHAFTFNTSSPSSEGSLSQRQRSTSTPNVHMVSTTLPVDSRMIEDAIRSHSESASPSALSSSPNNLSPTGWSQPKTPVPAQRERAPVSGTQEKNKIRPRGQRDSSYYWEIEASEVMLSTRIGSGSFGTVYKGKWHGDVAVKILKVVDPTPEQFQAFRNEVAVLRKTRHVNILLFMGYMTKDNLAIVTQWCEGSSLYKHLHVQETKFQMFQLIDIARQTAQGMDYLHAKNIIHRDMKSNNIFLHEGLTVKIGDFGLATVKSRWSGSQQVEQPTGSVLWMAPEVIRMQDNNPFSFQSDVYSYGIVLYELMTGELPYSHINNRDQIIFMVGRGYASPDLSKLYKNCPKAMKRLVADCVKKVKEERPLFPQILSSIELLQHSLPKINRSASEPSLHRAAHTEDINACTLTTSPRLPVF

Sequence of Tyrosine-protein kinase Fyn (Homo sapiens) (P06241 2-537 limits assumed): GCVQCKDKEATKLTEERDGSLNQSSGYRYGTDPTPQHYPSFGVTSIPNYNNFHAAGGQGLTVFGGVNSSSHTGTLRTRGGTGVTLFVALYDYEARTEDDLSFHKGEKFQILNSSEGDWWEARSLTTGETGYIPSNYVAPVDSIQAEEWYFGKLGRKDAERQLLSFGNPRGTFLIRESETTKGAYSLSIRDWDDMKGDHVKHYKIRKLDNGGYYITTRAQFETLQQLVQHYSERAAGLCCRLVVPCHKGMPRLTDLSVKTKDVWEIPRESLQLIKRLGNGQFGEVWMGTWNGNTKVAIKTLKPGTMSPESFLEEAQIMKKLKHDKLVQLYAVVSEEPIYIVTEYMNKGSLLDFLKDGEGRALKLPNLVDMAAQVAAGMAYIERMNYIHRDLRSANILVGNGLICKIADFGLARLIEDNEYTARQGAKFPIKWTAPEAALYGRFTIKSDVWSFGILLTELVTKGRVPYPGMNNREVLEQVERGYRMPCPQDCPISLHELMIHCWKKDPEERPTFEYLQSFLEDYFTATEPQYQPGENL
Sequence of Protein kinase C beta type (Homo sapiens) (P05771 2-671 limits assumed): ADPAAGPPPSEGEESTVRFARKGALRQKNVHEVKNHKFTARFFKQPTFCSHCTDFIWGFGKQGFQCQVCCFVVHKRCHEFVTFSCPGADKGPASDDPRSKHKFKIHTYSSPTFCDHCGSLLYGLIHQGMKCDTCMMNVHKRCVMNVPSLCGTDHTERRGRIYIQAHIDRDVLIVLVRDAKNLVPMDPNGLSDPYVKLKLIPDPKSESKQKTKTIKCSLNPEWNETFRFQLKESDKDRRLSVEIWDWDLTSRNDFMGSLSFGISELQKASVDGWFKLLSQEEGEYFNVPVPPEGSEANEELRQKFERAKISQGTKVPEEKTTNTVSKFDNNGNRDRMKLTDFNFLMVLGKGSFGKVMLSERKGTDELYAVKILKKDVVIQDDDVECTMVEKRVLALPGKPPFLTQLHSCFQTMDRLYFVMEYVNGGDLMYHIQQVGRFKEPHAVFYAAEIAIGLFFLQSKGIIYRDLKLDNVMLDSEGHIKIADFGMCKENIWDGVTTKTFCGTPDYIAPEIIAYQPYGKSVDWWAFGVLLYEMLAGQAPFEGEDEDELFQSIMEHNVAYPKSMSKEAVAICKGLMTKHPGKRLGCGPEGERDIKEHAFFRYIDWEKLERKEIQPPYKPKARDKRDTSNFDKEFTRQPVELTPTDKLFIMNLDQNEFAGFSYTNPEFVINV

## C[C@H](CN(C)C)Oc1nc(Nc2cc3cccc(Cl)c3cn2)cnc1C#N
[1]
  inhibition: 0%

## NCCc1ccc(-c2ncnc3[nH]cnc23)cc1
[2]
  inhibition: 64.5%

## NC1(Cc2ccc(Cl)cc2)CCN(c2ncnc3[nH]ccc23)CC1
[3]
  inhibition: 0%

## NCC1CCN(c2ncnc3[nH]ccc23)CC1
[4]
  inhibition: 0%
[5]
  inhibition: 75.5%

## CNCc1ccc(-c2ncnc3[nH]cnc23)cc1
Homo sapiens
  inhibition: 29.5%
[6]
  inhibition: 39.5%
